Publication PMC3501123 (Journal of medicinal chemistry, 2012)

Experiments:
[1] = target: T1, human A1AR (Homo sapiens, UniProt P30542); experiment: cAMP accumulation assay; format: cell-based; details: for agonist efficacy in cAMP accumulation assay: compared to compound 3, highest concentration tested; for effect of αβ-met-ADP on potency: inclusion of 10 μM αβ-met-ADP (NT5E/CD73 inhibitor)
T1 sequence (P30542 1-326): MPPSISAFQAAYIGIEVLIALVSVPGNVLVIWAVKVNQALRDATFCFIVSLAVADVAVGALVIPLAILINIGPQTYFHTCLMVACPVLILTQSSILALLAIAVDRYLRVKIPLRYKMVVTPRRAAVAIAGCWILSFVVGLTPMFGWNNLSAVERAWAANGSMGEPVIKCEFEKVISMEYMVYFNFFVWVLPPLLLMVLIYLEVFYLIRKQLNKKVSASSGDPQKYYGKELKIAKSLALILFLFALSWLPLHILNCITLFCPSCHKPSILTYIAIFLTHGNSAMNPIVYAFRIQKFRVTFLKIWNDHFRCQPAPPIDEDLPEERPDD

[2] = target: human A2AAR (Homo sapiens, UniProt P29274); experiment: radioligand binding assay
human A2AAR, sequence (P29274 whole entry): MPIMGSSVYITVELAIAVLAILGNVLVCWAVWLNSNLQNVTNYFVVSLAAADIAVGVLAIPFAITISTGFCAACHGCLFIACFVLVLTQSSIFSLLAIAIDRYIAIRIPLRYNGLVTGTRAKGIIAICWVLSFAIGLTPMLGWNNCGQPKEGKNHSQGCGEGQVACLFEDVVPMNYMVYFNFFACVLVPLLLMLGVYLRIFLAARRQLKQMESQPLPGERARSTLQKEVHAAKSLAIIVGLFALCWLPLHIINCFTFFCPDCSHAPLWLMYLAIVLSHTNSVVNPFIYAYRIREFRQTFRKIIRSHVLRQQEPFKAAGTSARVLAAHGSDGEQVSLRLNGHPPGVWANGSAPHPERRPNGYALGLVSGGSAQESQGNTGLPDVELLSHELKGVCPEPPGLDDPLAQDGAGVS

[3] = target: T2, human A2BAR (Homo sapiens, UniProt P29275); experiment: radioligand binding assay; details: read-out: % inhibition at A2B, 50 μM
T2 sequence (P29275 1-332): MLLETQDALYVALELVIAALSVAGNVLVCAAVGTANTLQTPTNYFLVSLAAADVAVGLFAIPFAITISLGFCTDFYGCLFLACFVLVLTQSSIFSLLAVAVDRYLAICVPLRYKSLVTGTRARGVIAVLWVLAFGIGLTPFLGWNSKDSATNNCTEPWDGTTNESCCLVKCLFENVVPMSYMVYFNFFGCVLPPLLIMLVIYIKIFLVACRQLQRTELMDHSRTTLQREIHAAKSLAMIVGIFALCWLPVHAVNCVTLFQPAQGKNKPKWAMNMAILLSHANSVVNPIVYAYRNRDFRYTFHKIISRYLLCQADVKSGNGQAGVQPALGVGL

[4] = target: T1, human A1AR; experiment: Ca2+ mobilization assay with chimeric G proteins; format: cell-based; details: Emax normalized to Emax of adenosine
[5] = system: C57BL/6 mice; experiment: telemetry of heart rate and body temperature; format: in vivo, mouse; details: 5000 nmol/kg, oral
[6] = target: T3, human A3AR (Homo sapiens, UniProt P0DMS8); experiment: radioligand binding assay
T3 sequence (P0DMS8 1-318): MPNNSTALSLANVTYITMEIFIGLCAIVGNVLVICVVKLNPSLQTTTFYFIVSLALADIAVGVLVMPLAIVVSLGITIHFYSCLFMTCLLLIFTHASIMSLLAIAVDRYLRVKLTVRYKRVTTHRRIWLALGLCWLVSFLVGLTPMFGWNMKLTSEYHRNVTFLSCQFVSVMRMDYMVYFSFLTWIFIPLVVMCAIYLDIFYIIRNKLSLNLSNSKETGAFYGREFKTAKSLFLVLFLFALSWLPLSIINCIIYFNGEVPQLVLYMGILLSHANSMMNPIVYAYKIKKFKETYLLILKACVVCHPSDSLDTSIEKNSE

[7] = system: C57BL/6 mice; experiment: noxious thermal sensitivity, Hargreaves paw withdrawal latency; format: in vivo, mouse
[8] = oral, 50, 500 or 5000 nmol/kg, wild-type mice

Row | agonist efficacy in cAMP accumulation assay [1] | SMILES | effect of αβ-met-ADP on potency [1] | selectivity for A1AR over A2AAR [2] [fold] | inhibition at 50 µM [3] [%] | agonist efficacy in Ca2+ mobilization assay [4] | effect on body temperature ([5]; A1AR–/– mice) | effect on heart rate ([5]; A1AR–/– mice) | effect on body temperature ([5]; wild-type mice) | effect on heart rate ([5]; wild-type mice) | selectivity for A1AR over A3AR [6] [fold] | thermal antinociceptive effect in A1AR knockout mice ([7]; A1AR–/– mice, 5 nmol, IT injection) | effect on noxious thermal sensitivity ([7]; intrathecal (IT) or intravenous (IV) injection, mice) | effect on noxious thermal sensitivity [7, 8]
1 | full agonists | Nc1ncnc2c1ncn2[C@@H]1O[C@H](CO)[C@@H](O)[C@H]1OP(=O)(O)O [2′-AMP, adenosine 2′-monophosphate] | did not significantly alter the potencies | – | – | – | – | – | – | – | – | – | – | –
2 | full agonists | Nc1ncnc2c1ncn2[C@@H]1O[C@H](CO)[C@@H](OP(=O)(O)O)[C@H]1O [3′-AMP, adenosine 3′-monophosphate] | did not significantly alter the potencies | – | – | – | – | – | – | – | – | – | – | –
3 | – | O=P([O-])([O-])OC[C@H]1O[C@@H](n2cnc3c(NC4CCCC4)nc(Cl)nc32)[C@H](O)[C@@H]1O.[Na+].[Na+] [Compound 3d, Sodium ((2R,3S,4R,5R)-5-(2-Chloro-6-(cyclopentylamino)-9H-purin-9-yl)-3,4-dihydroxytetrahydrofuran-2-yl)methyl Phosphate] | – | > 100 | – | potent full agonists | – | – | – | – | > 10 | – | – | –
4 | – | OC[C@H]1O[C@@H](n2cnc3c(NC4CCCC4)ncnc32)[C@H](O)[C@@H]1O [Compound 5, N^6-cyclopentyl adenosine, reference compound] | – | – | – | – | but not in A1AR^–/– mice | modest increase in heart rate | statistically significant decrease | statistically significant decrease | – | – | – | effects of 3a were similar to 5

Row | SMILES | agonist efficacy in cAMP accumulation assay [1] | effect of αβ-met-ADP on potency [1] | selectivity for A1AR over A2AAR [2] [fold] | inhibition at 50 µM [3] [%] | agonist efficacy in Ca2+ mobilization assay [4] | effect on body temperature ([5]; A1AR–/– mice) | effect on heart rate ([5]; A1AR–/– mice) | effect on body temperature ([5]; wild-type mice) | effect on heart rate ([5]; wild-type mice) | selectivity for A1AR over A3AR [6] [fold] | thermal antinociceptive effect in A1AR knockout mice ([7]; A1AR–/– mice, 5 nmol, IT injection) | effect on noxious thermal sensitivity ([7]; intrathecal (IT) or intravenous (IV) injection, mice) | effect on noxious thermal sensitivity [7, 8]
5 | COP(=O)(OC)OC[C@H]1O[C@@H](n2cnc3c(NC4CCCC4)nc(Cl)nc32)[C@H](O)[C@@H]1O [Compound 3a, ((2R,3S,4R,5R)-5-(2-Chloro-6-(cyclopentylamino)-9H-purin-9-yl)-3,4-dihydroxytetrahydrofuran-2-yl)methyl Dimethyl Phosphate] | full agonist | – | > 100 | < 10 | potent full agonists | negligible effects | negligible effects | negligible effects | negligible effects | > 10 | completely abolished | marked and dose-dependent inhibition of noxious thermal sensitivity | dose-dependently inhibited noxious thermal sensitivity
